In publication PMC3834219 (Plant molecular biology, 2013):

Biological target: T1, GmPP2C1 (Glycine max, UniProt K7LYY2)
T1 sequence (K7LYY2 1-536): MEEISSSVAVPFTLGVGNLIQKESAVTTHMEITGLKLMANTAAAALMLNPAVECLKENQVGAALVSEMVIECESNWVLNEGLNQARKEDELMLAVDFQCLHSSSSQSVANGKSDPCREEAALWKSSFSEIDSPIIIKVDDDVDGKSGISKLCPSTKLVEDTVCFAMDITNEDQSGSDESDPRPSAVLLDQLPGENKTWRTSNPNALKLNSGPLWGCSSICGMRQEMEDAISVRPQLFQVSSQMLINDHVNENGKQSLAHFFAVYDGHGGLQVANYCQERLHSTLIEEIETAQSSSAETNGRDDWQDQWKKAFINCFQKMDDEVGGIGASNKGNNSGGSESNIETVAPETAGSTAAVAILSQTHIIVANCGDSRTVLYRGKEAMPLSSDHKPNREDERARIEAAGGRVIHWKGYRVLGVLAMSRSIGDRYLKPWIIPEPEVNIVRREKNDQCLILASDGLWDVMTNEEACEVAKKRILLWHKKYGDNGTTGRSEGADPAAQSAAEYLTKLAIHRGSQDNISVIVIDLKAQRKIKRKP
Experiment: pNPP hydrolysis at […] nm
Type: biochemical
Details: 1 μM His-GmPP2C1, 50 mM pNPP, pH 7.5, 25 mM Mg(OAc)2, 2 mM MnCl2

## O=[N+]([O-])c1ccc(OP(=O)(O)O)cc1 [p-nitrophenyl phosphate]
  pNPP hydrolysis at 405 nm: GmPP2C1 phosphatase activity was measured using the colorimetric substrate p-nitrophenyl phosphate (pNPP, Sigma)
